{"source": "ChEMBL document CHEMBL1127128", "about": "“CGS 27830, a potent nonpeptide endothelin receptor antagonist” (Bioorg Med Chem Lett, 1993)", "key": {"[1]": {"molecular_target": "T1, Endothelin receptor type B (Rattus norvegicus, UniProt P21451)", "T1 sequence (P21451 whole entry)": "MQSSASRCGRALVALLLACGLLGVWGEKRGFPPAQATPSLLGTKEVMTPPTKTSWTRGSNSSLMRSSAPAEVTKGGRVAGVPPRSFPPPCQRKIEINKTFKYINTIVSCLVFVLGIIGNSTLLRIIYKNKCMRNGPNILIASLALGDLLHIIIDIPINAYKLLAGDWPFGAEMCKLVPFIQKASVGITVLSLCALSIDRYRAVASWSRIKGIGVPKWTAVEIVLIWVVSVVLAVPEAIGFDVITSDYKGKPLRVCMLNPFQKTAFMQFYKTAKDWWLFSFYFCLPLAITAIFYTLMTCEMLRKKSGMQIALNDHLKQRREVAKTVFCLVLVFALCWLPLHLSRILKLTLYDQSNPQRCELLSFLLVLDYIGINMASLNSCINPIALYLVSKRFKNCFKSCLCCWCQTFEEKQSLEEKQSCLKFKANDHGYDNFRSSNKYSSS", "assay": "Tested for its inhibitory activity against Endothelin B receptor; Compound was inactive"}, "Endothelin-1 receptor [2]": {"molecular_target": "T2, Endothelin-1 receptor (Sus scrofa, UniProt Q29010)", "T2 sequence (Q29010 whole entry)": "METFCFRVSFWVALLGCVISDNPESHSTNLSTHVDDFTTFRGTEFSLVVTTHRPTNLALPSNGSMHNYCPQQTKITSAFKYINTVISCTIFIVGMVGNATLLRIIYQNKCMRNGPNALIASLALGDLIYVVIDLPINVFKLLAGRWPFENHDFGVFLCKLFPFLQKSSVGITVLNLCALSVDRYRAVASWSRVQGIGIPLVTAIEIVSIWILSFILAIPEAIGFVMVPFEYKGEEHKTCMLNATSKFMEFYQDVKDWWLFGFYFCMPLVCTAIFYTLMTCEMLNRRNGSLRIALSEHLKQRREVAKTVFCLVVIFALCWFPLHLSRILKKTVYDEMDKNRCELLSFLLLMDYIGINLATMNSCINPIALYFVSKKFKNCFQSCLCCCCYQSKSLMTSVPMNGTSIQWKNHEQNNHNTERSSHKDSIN", "assay": "Tested for its inhibitory activity against Endothelin A receptor; inactive"}, "Endothelin-1 receptor [3]": {"molecular_target": "T2, Endothelin-1 receptor", "assay": "Tested for its inhibitory activity against Endothelin A receptor"}, "[4]": {"molecular_target": "T1, Endothelin receptor type B", "assay": "Tested for its inhibitory activity against Endothelin B receptor"}, "Rattus norvegicus [5]": {"tested_on": "Rattus norvegicus", "assay": "Tested for the dose at which depressor response attenuated by intravenous administration in conscious rat", "format": "functional"}, "Rattus norvegicus [6]": {"tested_on": "Rattus norvegicus", "assay": "Tested for the dose at which pressor response abolished by intravenous administration", "format": "functional"}, "[7]": {"molecular_target": "Voltage-gated L-type calcium channel (Rattus norvegicus, UniProt P22002+Q02485+P27732)", "assay": "Inhibition of [3H]PN-200-110 binding to L-type calcium channels in rat cortex membranes.", "format": "cell membranes, Membrane"}, "Endothelin-1 receptor [8]": {"molecular_target": "T2, Endothelin-1 receptor", "assay": "Tested for its ability to inhibit the binding of [125I]ET1 to the Endothelin A receptor in porcine thoracic aorta membranes.", "format": "cell membranes"}, "[9]": {"molecular_target": "T1, Endothelin receptor type B", "assay": "Tested for its ability to inhibit the binding of [125I]ET1 to the Endothelin B receptor in rat cerebellum membranes.", "format": "cell membranes, Membrane"}, "Oryctolagus cuniculus [10]": {"organism": "Oryctolagus cuniculus", "assay": "Tested for inhibition of ET-1 induced contractile response in isolated rabbit aorta at the concentration of 0.1 uM", "format": "functional"}, "Oryctolagus cuniculus [11]": {"organism": "Oryctolagus cuniculus", "assay": "Tested for inhibition of ET-1 induced contractile response in isolated rabbit aorta at the concentration of 10 uM", "format": "functional"}, "Oryctolagus cuniculus [12]": {"organism": "Oryctolagus cuniculus", "assay": "Tested for inhibition of ET-1 induced contractile response in isolated rabbit aorta at the concentration of 1 uM", "format": "functional"}, "[13]": {"assay": "The half-life period was reported.", "format": "ADME"}, "[14]": {"assay": "Tested for inhibition of ET-1 induced phosphoinositide (PI) turnover in A7r5 smooth muscle cells", "format": "functional, cell-based", "settings": "Rattus norvegicus; call rule not given here"}}, "data": [{"smiles": "COC(=O)C1=C(C)N=C(C)/C(=C(/O)OC(=O)C2=C(C)N=C(C)/C(=C(/O)OC)[C@H]2c2cccc([N+](=O)[O-])c2)[C@@H]1c1cccc([N+](=O)[O-])c1", "values": [{"measurement": "IC50", "setting": "[1]", "result": "Not Active"}, {"measurement": "IC50", "setting": "Endothelin-1 receptor [2]", "result": "Not Active"}]}, {"smiles": "COC(=O)C1=C(C)N=C(C)/C(=C(/O)OC(=O)C2=C(C)N=C(C)/C(=C(/O)OC)[C@@H]2c2cccc([N+](=O)[O-])c2)[C@H]1c1cccc([N+](=O)[O-])c1", "values": [{"measurement": "IC50", "setting": "Endothelin-1 receptor [3]", "result": 0.422, "unit": "µM"}, {"measurement": "IC50", "setting": "[4]", "result": 2.7, "unit": "µM"}]}, {"smiles": "COC(=O)C1=C(C)N=C(C)/C(=C(/O)OC(=O)C2=C(C)N=C(C)/C(=C(/O)OC)[C@@H]2c2cccc([N+](=O)[O-])c2)[C@@H]1c1cccc([N+](=O)[O-])c1", "values": [{"measurement": "Dose", "setting": "Rattus norvegicus [5]", "result": 0.25, "unit": "nM/kg"}, {"measurement": "Dose", "setting": "Rattus norvegicus [6]", "result": 10, "unit": "mg/kg"}, {"measurement": "IC50", "setting": "[7]", "result": 0.592, "unit": "µM"}, {"measurement": "IC50", "setting": "Endothelin-1 receptor [8]", "result": 0.0159, "unit": "µM"}, {"measurement": "IC50", "setting": "[9]", "result": 0.295, "unit": "µM"}, {"measurement": "inhibition at 0.1 µM", "setting": "Oryctolagus cuniculus [10]", "result": 33, "unit": "%"}, {"measurement": "inhibition at 10 µM", "setting": "Oryctolagus cuniculus [11]", "result": 77, "unit": "%"}, {"measurement": "inhibition at 1 µM", "setting": "Oryctolagus cuniculus [12]", "result": 42, "unit": "%"}, {"measurement": "half-life", "setting": "[13]", "result": "< 1", "unit": "h"}, {"measurement": "EC50", "setting": "[14]", "result": 0.143, "unit": "µM"}]}]}
